{
  "source": "patent US10689381B2",
  "about": "(priority 2017, dated 2020)",
  "test_in_all_cases": "cells",
  "key": {"L1210": {"test_system": "L1210", "type": "cell-based, mouse", "summary_of_the_method": "(§1)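 Compound exposure ran 72 h at six concentrations (0–1000 nM or 0–10000 nM, duplicate) on cells plated at 30,000 cells/mL in 10% FBS DMEM. A closing 37 °C incubation took 15 min (HCT116) or 5 min (L1210).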"}, "HCT116": {"test_system": "HCT116", "type": "cell-based, human", "settings": "read-out: IC50 HCT116", "summary_of_the_method": "as §1"}, "HCT116/VM46": {"test_system": "HCT116/VM46", "type": "cell-based, human", "experimental": "Compounds were tested for their cell growth inhibition of L1210 (ATCC no. CCL-219, mouse lymphocytic leukemia), HCT116 (ATCC no. CCL-247, human colorectal carcinoma), and HCT116/VM46 (a vinblastine-resistant strain of HCT116) cells in culture. A population of cells (>1×10^6 cells/mL as determined with a hemocytometer) was diluted with Dulbecco's Modified Eagle Medium (DMEM, Gibco) containing 10% fetal bovine serum (FBS, Gibco) to give a final concentration of 30,000 cells/mL. To each well of a 96-well plate (Corning® Costar®) was added 100 μL of the cell media solution with a multichannel pipet. The cultures were incubated at 37° C. in an atmosphere of 5% CO2 and 95% humidified air for 24 hours.\nThe test compounds were then added to the plate as follows: test compounds were diluted in DMSO to a concentration of 1 mM. 10-Fold serial dilutions in DMSO were next performed on a separate 96-well plate. Fresh culture media (100 μL) was added to each well of cells resulting in 200 μL of medium per well followed by 2 μL of each test agent. Compounds were tested in duplicate (n=2-8 times) at six concentrations between 0-1000 nM or 0-10000 nM. Following the addition of compound, cultures were incubated for an additional 72 hours.\nThe plates were incubated at 37° C. for 5 minutes (L1210) or 15 min (HCT116 and HCT116/VM46). After the given incubation time, 50 μL of 0.1 N NaOH was added to each well and the absorption at 405 nm was determined using a 96 well plate reader. […]"}, "A549": {"test_system": "A549", "type": "cell-based, human", "settings": "Homo sapiens, A549", "text": "(§2) 2001, 98:11737; Kavallaris et al., Brit. J. Cancer. 1999, 80:1020; and Kavallaris et al., J. Clin. Invest. 1997, 100:1282]. As a result, the comparison of cell growth inhibition of candidate drugs against A549 vs A549-T24 has been used to characterize potential resistance due to increased expression of class III β-tubulin [Goncalves et al., Proc. Natl. Acad. Sci. USA. 2001, 98:11737; Kavallaris et al., Brit. J. Cancer. 1999, 80:1020; and Kavallaris et al., J. Clin. Invest. 1997, 100:1282]."}, "A549-T24": {"test_system": "A549-T24", "type": "cell-based, human", "text": "as §2"}, "[1]": {"settings": "table b183, value in parentheses"}},
  "note": "Read-outs that look alike come from different tables or passages of the source.",
  "data": [
    {"smiles": "CCC1(NS(=O)(=O)c2ccccc2)CC2CN(CCc3c([nH]c4ccccc34)C(C(=O)OC)(c3cc4c(cc3OC)N(C)C3C(O)(C(=O)OC)C(OC(C)=O)C5(CC)C=CCN6CCC43C65)C2)C1", "note": "(stereo not shown) [Compound 179]", "values": [
      {"measurement": "IC50", "setting": "L1210; Table 7, C20′ sulfonamides", "result": 45, "unit": "nM"},
      {"measurement": "IC50", "setting": "HCT116; Table 7, C20′ sulfonamides", "result": 50, "unit": "nM"}
    ]},
    {"smiles": "CCC1(NS(=O)(=O)c2ccc(C)cc2)CC2CN(CCc3c([nH]c4ccccc34)C(C(=O)OC)(c3cc4c(cc3OC)N(C)C3C(O)(C(=O)OC)C(OC(C)=O)C5(CC)C=CCN6CCC43C65)C2)C1", "note": "(stereo not shown) [Compound 180]", "values": [
      {"measurement": "IC50", "setting": "L1210; Table 7, C20′ sulfonamides", "result": 40, "unit": "nM"},
      {"measurement": "IC50", "setting": "HCT116; Table 7, C20′ sulfonamides", "result": 30, "unit": "nM"}
    ]},
    {"smiles": "CCC1(NS(=O)(=O)c2ccc(OC)cc2)CC2CN(CCc3c([nH]c4ccccc34)C(C(=O)OC)(c3cc4c(cc3OC)N(C)C3C(O)(C(=O)OC)C(OC(C)=O)C5(CC)C=CCN6CCC43C65)C2)C1", "note": "(stereo not shown) [Compound 181]", "values": [
      {"measurement": "IC50", "setting": "L1210; Table 7, C20′ sulfonamides", "result": 35, "unit": "nM"},
      {"measurement": "IC50", "setting": "HCT116; Table 7, C20′ sulfonamides", "result": 30, "unit": "nM"}
    ]},
    {"smiles": "CCC1(NS(=O)(=O)c2cccc([N+](=O)[O-])c2)CC2CN(CCc3c([nH]c4ccccc34)C(C(=O)OC)(c3cc4c(cc3OC)N(C)C3C(O)(C(=O)OC)C(OC(C)=O)C5(CC)C=CCN6CCC43C65)C2)C1", "note": "(stereo not shown) [Compound 182]", "values": [
      {"measurement": "IC50", "setting": "L1210; Table 7, C20′ sulfonamides", "result": 450, "unit": "nM"},
      {"measurement": "IC50", "setting": "HCT116; Table 7, C20′ sulfonamides", "result": 490, "unit": "nM"}
    ]},
    {"smiles": "CCC1(NS(=O)(=O)c2ccccc2[N+](=O)[O-])CC2CN(CCc3c([nH]c4ccccc34)C(C(=O)OC)(c3cc4c(cc3OC)N(C)C3C(O)(C(=O)OC)C(OC(C)=O)C5(CC)C=CCN6CCC43C65)C2)C1", "note": "(stereo not shown) [Compound 183]", "values": [
      {"measurement": "IC50", "setting": "L1210; Table 7, C20′ sulfonamides", "result": 360, "unit": "nM"},
      {"measurement": "IC50", "setting": "HCT116; Table 7, C20′ sulfonamides", "result": 420, "unit": "nM"}
    ]},
    {"smiles": "CCC1(NS(=O)(=O)c2c(C)cc(C)cc2C)CC2CN(CCc3c([nH]c4ccccc34)C(C(=O)OC)(c3cc4c(cc3OC)N(C)C3C(O)(C(=O)OC)C(OC(C)=O)C5(CC)C=CCN6CCC43C65)C2)C1", "note": "(stereo not shown) [Compound 184]", "values": [
      {"measurement": "IC50", "setting": "L1210; Table 7, C20′ sulfonamides", "result": 500, "unit": "nM"},
      {"measurement": "IC50", "setting": "HCT116; Table 7, C20′ sulfonamides", "result": 580, "unit": "nM"}
    ]},
    {"smiles": "CC[C@]1(NS(=O)(=O)c2ccc3ccccc3c2)C[C@H]2CN(CCc3c([nH]c4ccccc34)[C@@](C(=O)OC)(c3cc4c(cc3OC)N(C)[C@H]3[C@@](O)(C(=O)OC)[C@H](OC(C)=O)[C@]5(CC)C=CCN6CC[C@]43[C@@H]65)C2)C1", "note": "[Compound 185]", "values": [
      {"measurement": "IC50", "setting": "L1210; Table 7, C20′ sulfonamides", "result": 50, "unit": "nM"},
      {"measurement": "IC50", "setting": "HCT116; Table 7, C20′ sulfonamides", "result": 60, "unit": "nM"}
    ]},
    {"smiles": "CCC1(NS(=O)(=O)c2cccc3c(N(C)C)cccc23)CC2CN(CCc3c([nH]c4ccccc34)C(C(=O)OC)(c3cc4c(cc3OC)N(C)C3C(O)(C(=O)OC)C(OC(C)=O)C5(CC)C=CCN6CCC43C65)C2)C1", "note": "(stereo not shown) [Compound 186]", "values": [
      {"measurement": "IC50", "setting": "L1210; Table 7, C20′ sulfonamides", "result": 30, "unit": "nM"},
      {"measurement": "IC50", "setting": "HCT116; Table 7, C20′ sulfonamides", "result": 30, "unit": "nM"}
    ]},
    {"smiles": "CC[C@]1(NC(=O)c2ccc(OC(F)(F)F)cc2)C[C@H]2CN(CCc3c([nH]c4ccc(F)cc34)[C@@](C(=O)OC)(c3cc4c(cc3OC)N(C)[C@H]3[C@@](O)(C(=O)OC)[C@H](OC(C)=O)[C@]5(CC)C=CCN6CC[C@]43[C@@H]65)C2)C1", "note": "[Compound 188]", "values": [
      {"measurement": "IC50", "setting": "L1210; Table 8, 10′-F compounds", "result": 0.6, "unit": "nM"},
      {"measurement": "IC50", "setting": "HCT116; Table 8, 10′-F compounds", "result": 0.7, "unit": "nM"}
    ]},
    {"smiles": "CC[C@]1(NC(=O)c2ccc3c(c2)CCCC3)C[C@H]2CN(CCc3c([nH]c4ccc(F)cc34)[C@@](C(=O)OC)(c3cc4c(cc3OC)N(C)[C@H]3[C@@](O)(C(=O)OC)[C@H](OC(C)=O)[C@]5(CC)C=CCN6CC[C@]43[C@@H]65)C2)C1", "note": "[Compound 189]", "values": [
      {"measurement": "IC50", "setting": "L1210; Table 8, 10′-F compounds", "result": 5, "unit": "nM"},
      {"measurement": "IC50", "setting": "HCT116; Table 8, 10′-F compounds", "result": 6.2, "unit": "nM"}
    ]},
    {"smiles": "CC(=O)O[C@H]1C(=O)[C@@]2(C)[C@H]([C@H](OC(=O)c3ccccc3)[C@]3(O)C[C@H](OC(=O)[C@H](O)[C@@H](NC(=O)c4ccccc4)c4ccccc4)C(C)=C1C3(C)C)[C@]1(OC(C)=O)CO[C@@H]1C[C@@H]2O", "note": "[Taxol, reference compound]", "values": [
      {"measurement": "IC50", "setting": "HCT116/VM46; Homo sapiens, HCT-116/VM46, table b183, read-out: IC50 HCT116/VM46", "result": "> 200", "unit": "nM"},
      {"measurement": "Measured fold resistant vs wt HCT116", "setting": "HCT116/VM46; [1]", "result": "> 50"},
      {"measurement": "IC50", "setting": "A549; read-out: IC50 A549", "result": 7.1, "unit": "nM"},
      {"measurement": "IC50", "setting": "A549; read-out: IC50 wild type A549", "result": 7.1, "unit": "nM"},
      {"measurement": "loss in potency A549-T24 relative to wild type A549", "setting": "A549-T24", "result": 10, "unit": "fold"},
      {"measurement": "IC50", "setting": "A549-T24; Homo sapiens", "result": 70, "unit": "nM"},
      {"measurement": "Measured fold resistant vs wt A549", "setting": "A549-T24; [1]", "result": 10},
      {"measurement": "IC50", "setting": "HCT116; Homo sapiens, HCT-116, table b183", "result": 4.1, "unit": "nM"}
    ]}
  ]
}
